In patent publication US9499493B2, “2,4-pyrimidinediamine compounds and their uses” (Rigel Pharmaceuticals, Inc., priority 2002, dated 2016):

What was measured:
[1] = test system: cultured human mast cells (CHMC); experiment: CHMC low cell density ionomycin activation: tryptase assay; type: cell-based
[2] = test system: cultured human mast cells (CHMC); experiment: CHMC low cell density IgE activation: tryptase assay; type: cell-based; details: anti-IgE
In short: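 CHMC resuspended in pre-warmed MT buffer at 1000-1500 cells/well (donor-dependent) and preincubated 1 hr at 37° C, then stimulated with anti-IgE for 30 min at 37° C; unstimulated wells got MT alone. Supernatant tryptase activity read with tryptase substrate after 30 min at room temperature.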

Row | Compound | IC50 [1] | IC50 [2]
1 | CC(C)(C)c1cccc(Nc2nc(Nc3cccc(OCCO)c3)ncc2F)c1 [R940282, N4-(3-tert-Butylphenyl)-5-fluoro-N2-[3-(2-hydroxyethyleneoxy)phenyl]-2,4-pyrimidinediamine] | 3.02 µM | 0.401 µM
2 | CCOC(=O)C(C)(C)c1ccc(Nc2nc(Nc3ccc(OCC(=O)OC)cc3)ncc2F)cc1 [R935157, N4-[4-[(1-Ethoxycarbonyl-1-methyl)ethyl]phenyl]-5-fluoro-N2-(4-methoxycarbonylmethyleneoxyphenyl)-2,4-pyrimidinediamine] | 4.66 µM | 0.256 µM
3 | CNC(=O)CCn1ncc2ccc(Nc3ncc(F)c(Nc4ccc5oc(C(=O)NC)cc5c4)n3)cc21 [R935297, 5-Fluoro-N4-[2-(N-methylaminocarbonyl)benzofuran-5-yl]-N2-[1-[2(N-methylaminocarbonyl)ethyl]-indazoline-6-yl]-2,4-pyrimidinediamine] | > 10 µM | 7.33 µM
4 | CNC(=O)COc1cccc(Nc2nc(Nc3ccc4c(c3)NCCO4)ncc2F)c1 [R909247, N2-(1,4-Benzoxazin-6-yl)-5-fluoro-N4-[3-(N-methylamino)carbonylmethyleneoxyphenyl]-2,4-pyrimidinediamine] | > 10 µM | 2.39 µM
5 | Cn1ncc2cc(Nc3ncc(F)c(Nc4ccc(OC(F)(F)F)c(Cl)c4)n3)ccc21 [R935359, N4-(3-chloro-4-trifluoromethoxyphenyl)-5-fluoro-N2-(1-methylindazoline-5-yl)-2,4-pyrimidinediamine] | > 10 µM | 1.03 µM
6 | Fc1cnc(Nc2ccc3c(c2)OCCO3)nc1NNc1ccc2c(c1)OCO2 [R926406, N2-(3,4-Ethylenedioxyphenyl)-N4-(3,4-methylenedioxyphenylhydrazinyl)-5-fluoro-2-pyrimidineamine] | > 10 µM | > 10 µM
7 | CCOC(=O)c1cnc(Nc2ccc(OCC(=O)N3CCCC3)cc2)nc1Nc1ccc(OCC(=O)N2CCCC2)cc1 [R926562, N2,N4-Bis[4-(N-pyrrolidino)carbonylmethyleneoxyphenyl]-5-ethoxycarbonyl-2,4-pyrimidinediamine] | > 10 µM | > 10 µM
8 | COC(=O)c1cc(Nc2nc(Cl)ncc2F)cc(C(F)(F)F)c1 [Compound R926861] | > 10 µM | > 10 µM
9 | O=C(COc1cccc(Nc2ncc(F)c(Nc3ccc4c(c3)C(=O)OC4)n2)c1)NCC(O)CO (centres unmarked) [R940293, N4-(3,3-Dihydroisobenzofuran-1-one-6-yl)-N2-[3-(N-2,3-dihydroxypropylamino)carbonylmethyleneoxyphenyl]-5-fluoro-2,4-pyrimidinediamine] | > 10 µM | > 10 µM
10 | Cc1ccc(-c2ccccc2)cc1Nc1ncc(F)c(Nc2cc(-c3ccccc3)ccc2C)n1 [R926402, N2,N4-Bis[(2-methyl-5-phenyl)phenyl]-5-fluoro-2,4-pyrimidinediamine] | > 10 µM | > 10 µM
11 | CCCNC(=O)COc1ccc(Nc2ncc(C#N)c(Nc3ccc(OCC(=O)NCCC)cc3)n2)cc1 [R925853, N2,N4-Bis[4-(N-n-propylamino)carbonylmethyleneoxyphenyl]-5-cyano-2,4-pyrimidinediamine] | > 10 µM | > 10 µM
12 | CNC(=O)COc1cc(Nc2ncc(F)c(Nc3ccc(C)c(OCC(=O)NC)c3)n2)ccc1C [R926760, 5-Fluoro-N2,N4-bis[4-methyl-3-[(N-methylamino)carbonylmethyleneoxy]phenyl]-2,4-pyrimidinediamine] | > 10 µM | 2.89 µM
13 | CCOC(=O)C(C)Oc1ccc(Nc2ncc(C)c(Nc3ccc(OC(C)C(=O)OCC)cc3)n2)cc1 (racemic) [R926259, (±)-N2,N4-Bis[4-ethoxycarbonyl(alpha-methyl)methyleneoxyphenyl]-5-methyl-2,4-pyrimidinediamine] | 6.2 µM | 2.5 µM
14 | O=C(NCCN1CCOCC1)c1cc2cc(Nc3ncc(F)c(Nc4ccc5oc(C(=O)NCCN6CCOCC6)cc5c4)n3)ccc2o1 [R950173, N2,N4-Bis[2-(2-N-morpholinoethyleneamoinocarbonyl)-benzofurane-5-yl]-5-fluoro-2,4-pyrimidinediamine] | > 10 µM | 2.37 µM
15 | CCOC(=O)c1cnc(Nc2ccc(OCC(=O)NC)cc2)nc1Nc1cccc(O)c1 [R925839, 5-Ethoxycarbonyl-N4-(3-hydroxyphenyl)-N2-[4-(N-methylamino)carbonylmethyleneoxyphenyl]-2,4-pyrimidinediamine] | > 10 µM | > 10 µM
16 | CCOC(=O)COc1cccc(Nc2ncc(F)c(Nc3ccc4c(c3)C(=O)OC4)n2)c1 [R940285, N2-[3-Ethoxycarbonylmethyleneoxyphenyl]-N4-(3,3-dihydroisobenzofuranyl-1-one-6-yl)-5-fluoro-2,4-pyrimidinediamine] | > 10 µM | 3.5 µM
17 | COc1ccc(Nc2ncc(F)c(Nc3ccc(OC)c(-c4ccccc4)c3)n2)cc1-c1ccccc1 [R926399, N2,N4-Bis[(4-methoxy-3-phenyl)phenyl]-5-fluoro-2,4-pyrimidinediamine] | > 10 µM | > 10 µM

Row | Compound | IC50 [1] | IC50 [2]
18 | CNC(=O)CCn1ncc2cc(Nc3ncc(F)c(Nc4cccc(O)c4)n3)ccc21 [R935305, 5-Fluoro-N4-(3-hydroxyphenyl)-N2-[1-[2(N-methylaminocarbonyl)ethyl]-indazoline-5-yl]-2,4-pyrimidinediamine] | > 10 µM | 0.495 µM
19 | CNC(=O)COc1cccc(Nc2ncc(F)c(Nc3cc(OC)cc(OC)c3)n2)c1 [R926796, N4-(3,5-Dimethoxyphenyl)-5-fluoro-N2-[3-(N-methylamino)carbonylmethyleneoxyphenyl]-2,4-pyrimidinediamine] | > 10 µM | 0.914 µM
20 | COC(=O)COc1ccc(Nc2nc(Nc3ccc(OCC#N)cc3)ncc2F)cc1 [R945062, N2-(4-Cyanomethyleneoxyphenyl)-5-fluoro-N4-(4-methoxycarbonylmethyleneoxyphenyl)-2,4-pyrimidinediamine] | > 10 µM | 0.625 µM
21 | Fc1cnc(Nc2ccc3cn[nH]c3c2)nc1Nc1ccc2c(c1)OCCO2 [R935190, N4-(3,4-Ethylenedioxyphenyl)-5-fluoro-N2-(indazolin-6-yl)-2,4-pyrimidinediamine] | > 10 µM | 0.156 µM
22 | N#CCOc1ccc(Nc2ncc(F)c(Nc3ccc4c(c3)OCCO4)n2)cc1 [R926480, N2-(4-Cyanomethyleneoxyphenyl)-N4-(3,4-ethylenedioxyphenyl)-5-fluoro-2,4-pyrimidinediamine] | > 10 µM | 1.9 µM
23 | Cn1ncc2cc(Nc3ncc(F)c(Nc4ccc(Cl)c(Cl)c4)n3)ccc21 [R935355, N4-(3,4-Dichlorophenyl)-5-fluoro-N2-(1-methylindazoline-5-yl)-2,4-pyrimidinediamine] | > 10 µM | > 10 µM
24 | CCOC(=O)COc1ccc(Nc2nc(Nc3ccc(OCC(=O)OCC)cc3)c([N+](=O)[O-])c(C(=O)OCC)n2)cc1 [R926566, N2,N4-Bis(4-ethoxycarbonylmethylenedioxyphenyl)-6-ethoxycarbonyl-5-nitro-2,4-pyrimidinediamine] | > 10 µM | 2.73 µM
25 | CC(=NO)c1cccc(Nc2ncc(F)c(Nc3cccc(C(C)=NO)c3)n2)c1 [R950379, N2,N4-Bis(3-methylcarbonyloximephenyl)-5-fluoro-2,4-pyrimidinediamine] | > 10 µM | 0.545 µM
26 | CCOC(=O)CNC(=O)Nc1c(Nc2ccc(OCC(=O)OCC)cc2)nc(Nc2ccc(OCC(=O)OCC)cc2)nc1C(=O)OCC [R926587, N2,N4-Bis(4-ethoxycarbonylmethyleneoxyphenyl)-6-ethoxycarbonyl-5-(ethoxycarbonylmethyleneaminocarbonylamino)-2,4-pyrimidinediamine] | > 10 µM | > 10 µM
27 | CNC(=O)COc1cccc(Nc2ncc(F)c(Nc3ccc(F)c(C(F)(F)F)c3)n2)c1 [R926838, 5-Fluoro-N4-(4-fluoro-3-trifluoromethylphenyl)-N2-[3-(N-methylamino)carbonylmethyleneoxyphenyl]-2,4-pyrimidinediamine] | > 10 µM | 0.583 µM
28 | CCCCNC(=O)COc1ccc(Nc2ncc(C#N)c(Nc3ccc(OCC(=O)NCCCC)cc3)n2)cc1 [R925860, N2,N4-Bis[4-(N-n-butylamino)carbonylmethyleneoxyphenyl]-5-cyano-2,4-pyrimidinediamine] | > 10 µM | > 10 µM
29 | Cc1noc(COc2ccc(Nc3ncc(F)c(Nc4ccc(OC(C)C)cc4)n3)cc2)n1 [R935142, 5-Fluoro-N4-(4-isopropoxyphenyl)-N2-[4-(3-methyl-1,2,4-oxadiazol-5-yl)methyleneoxyphenyl]-2,4-pyrimidinediamine] | > 10 µM | 0.873 µM
30 | COC(=O)COc1cccc(Nc2ncc(F)c(Nc3ccc(OC(C)C)cc3)n2)c1 [R945125, 5-Fluoro-N4-(4-isopropoxyphenyl)-N2-(3-methoxycarbonylmethyleneoxyphenyl)-2,4-pyrimidinediamine] | > 10 µM | 0.896 µM
31 | Cc1nc(COc2cccc(Nc3nc(Nc4cccc(O)c4)ncc3F)c2)no1 [R945132, 5-Fluoro-N2-(3-hydroxyphenyl)-N4-[3-(5-methyl-1,2,4-oxadiazol-3-yl)methyleneoxyphenyl]-2,4-pyrimidinediamine] | 8.77 µM | 0.571 µM
32 | CNC(=O)COc1cc(O)cc(Nc2ncc(F)c(Nc3cccc(O)c3)n2)c1 [R926929, 5-Fluoro-N2-[3-hydroxy-5-[(N-methylamino)carbonylmethyleneoxy]phenyl]-N4-(3-hydroxyphenyl)-2,4-pyrimidinediamine] | > 10 µM | 1.92 µM
33 | CC(C)(C)OC(=O)COc1ccc(Nc2nc(Cl)c(Cl)c(Nc3ccc(OCC(=O)OC(C)(C)C)cc3)n2)cc1 [R926576, N2,N4-Bis(4-tert-butoxyoxycarbonylmethyleneoxyphenyl)-5,6-dichloro-2,4-pyrimidinediamine] | > 10 µM | > 10 µM
34 | COc1cccc(CNC(=O)COc2ccc(Nc3nc(Nc4cccc(O)c4)ncc3Br)cc2)c1 [R925843, 5-Bromo-N2-(3-hydroxyphenyl)-N4-[4-(N-3-methoxybenzylamino)carbonylmethyleneoxyphenyl]-2,4-pyrimidinediamine] | > 10 µM | > 10 µM
